For 37 compounds, IC50 results are on record in patent US20260265251A1 (priority 2023, published 2026).

For orientation: IC50 means the concentration that gives 50% inhibition.

For one assay, the system named is A2058 cells. Description: A2058 cell proliferation assay. The class given is cell-based. As to conditions: Homo sapiens, 96 hours, CellTiter-Glo. On the technique in general: ATP-based viability assays read luminescence as a measure of living cells.
Compound `O=c1[nH]c2cc3c(nc2[nH]1)CCC(c1cnn(C(F)F)c1Cl)C3` (racemic) [Example 64, 7-(5-chloro-1-(difluoromethyl)-1H-pyrazol-4-yl)-1,3,5,6,7,8-hexahydro-2H-imidazo[4,5-b]quinolin-2-one] had a 50% inhibitory concentration (IC50) of 0.4 nM. On to `O=c1[nH]c2cc3c(nc2[nH]1)CC[C@H](c1cnn(C(F)F)c1Cl)C3` (single isomer, unassigned) [Example 64-A, (*S)-7-(5-chloro-1-(difluoromethyl)-1H-pyrazol-4-yl)-1,3,5,6,7,8-hexahdro-2H-imidazo[4,5-b]quinolin-2-one], for which inhibition was half-maximal at 0.29 nM (IC50).

Take `O=c1[nH]c2cc3c(nc2[nH]1)CC[C@@H](c1cnn(C(F)F)c1Cl)C3` (single isomer, unassigned) [Example 64-B, (*R)-7-(5-chloro-1-(difluoromethyl)-1H-pyrazol-4-yl)-1,3,5,6,7,8-hexahydro-2H-imidazo[4,5-b]quinolin-2-one]: the IC50 turned out to be 1.79 nM. Compound `O=c1[nH]c2cc3cc(-c4ccc(F)cc4Cl)ccc3nc2[nH]1` [Example 3, 7-(2-chloro-4-fluorophenyl)-1,3-dihydro-2H-imidazo[4,5-b]quinolin-2-one] showed an IC50 of 1.2 nM. The same measure, in the same setting: the same measure for `O=c1[nH]c2cc3cc(-c4cnn(C(F)F)c4Cl)ccc3nc2[nH]1` [Example 13, 7-(5-chloro-1-(difluoromethyl)-1H-pyrazol-4-yl)-1,3-dihydro-2H-imidazo[4,5-b]quinolin-2-one]: 0.1 nM. Still for that read-out and setting: the same measure for `N#Cc1ccc(-c2ccc3nc4[nH]c(=O)[nH]c4cc3c2)c(Cl)c1` [Example 14, 7-(2-chloro-4-cyanophenyl)-1,3-dihydro-2H-imidazo[4,5-b]quinolin-2-one]: 1.1 nM. On the same count and under the same terms, the same measure for `O=c1[nH]c2cc3cc(-c4nn(C(F)F)cc4Cl)ccc3nc2[nH]1` [Example 15, 7-(4-chloro-1-(difluoromethyl)-1H-pyrazol-3-yl)-1,3-dihydro-2H-imidazo[4,5-b]quinolin-2-one]: 3.9 nM; for `O=c1[nH]c2cc3cc(-c4ncn(C(F)F)c4Cl)ccc3nc2[nH]1` [Example 37, 7-(5-chloro-1-(difluoromethyl)-1H-imidazol-4-yl)-1,3-dihydro-2H-imidazo[4,5-b]quinolin-2-one]: 1 nM; for `O=c1[nH]c2cc3cc(-c4ccc(Cl)nc4OC(F)F)ccc3nc2[nH]1` [Example 39, 7-(6-chloro-2-(difluoromethoxy)pyridin-3-yl)-1,3-dihydro-2H-imidazo[4,5-b]quinolin-2-one]: 3.3 nM.

Consider `CNc1ccc(-c2ccc3nc4[nH]c(=O)[nH]c4cc3c2)c(Cl)n1` [Example 40, 7-(2-chloro-6-(methylamino)pyridin-3-yl)-1,3-dihydro-2H-imidazo[4,5-b]quinolin-2-one], for which 8 nM corresponded to half-maximal inhibition (IC50). Still for that read-out and setting: for `CNc1nc(Cl)ccc1-c1ccc2nc3[nH]c(=O)[nH]c3cc2c1` [Example 41, 7-(6-chloro-2-(methylamino)pyridin-3-yl)-1,3-dihydro-2H-imidazo[4,5-b]quinolin-2-one] the value was 61 nM; for `O=c1[nH]c2cc3cc(-c4cnn(C(F)F)c4OC(F)F)ccc3nc2[nH]1` [Example 42, 7-(5-(difluoromethoxy)-1-(difluoromethyl)-1H-pyrazol-4-yl)-1,3-dihydro-2H-imidazo[4,5-b]quinolin-2-one], 0.4 nM; for `[2H]C([2H])([2H])c1c(-c2ccc3nc4[nH]c(=O)[nH]c4cc3c2)cnn1C(F)F` [Example 45, 7-(1-(difluoromethyl)-5-(methyl-d3)-1H-pyrazol-4-yl)-1,3-dihydro-2H-imidazo[4,5-b]quinolin-2-one], 0.19 nM. As to `O=c1[nH]c2cc3c(nc2[nH]1)CCC(c1ccc(F)cc1)C3` (centres unmarked) [Example 57, 7-(4-fluorophenyl)-1,3,5,6,7,8-hexahydro-2H-imidazo[4,5-b]quinolin-2-one], 32.2 nM corresponded to half-maximal inhibition (IC50).

Take `O=c1[nH]c2cc3c(nc2[nH]1)CCN(c1nc(C(F)(F)F)ccc1F)C3` [Example 60, 7-(3-fluoro-6-(trifluoromethyl)pyridin-2-yl)-1,3,5,6,7,8-hexahydro-2H-imidazo[4,5-b][1,6]naphthyridin-2-one]: the half-inhibitory concentration (IC50) came to 1.7 nM. The same measure, in the same setting: for `O=c1[nH]c2cc3c(nc2[nH]1)CCN(c1ccc(F)c(C(F)(F)F)n1)C3` [Example 61, 7-(5-fluoro-6-(trifluoromethyl)pyridin-2-yl)-1,3,5,6,7,8-hexahydro-2H-imidazo[4,5-b][1,6]naphthyridin-2-one] the value was 1.9 nM; for `O=c1[nH]c2cc3c(nc2[nH]1)CCN(c1ccc(Cl)nc1C(F)(F)F)C3` [Example 62, 7-(6-chloro-2-(trifluoromethyl)pyridin-3-yl)-1,3,5,6,7,8-hexahydro-2H-imidazo[4,5-b][1,6]naphthyridin-2-one], 31.9 nM; for `O=c1[nH]c2cc3c(nc2[nH]1)CCC(c1cn(C(F)F)nc1Cl)C3` (centres unmarked) [Example 63, 7-(3-chloro-1-(difluoromethyl)-1H-pyrazol-4-yl)-1,3,5,6,7,8-hexahydro-2H-imidazo[4,5-b]quinolin-2-one], 8.1 nM. Take `O=c1[nH]c2cc3c(Cl)c(-c4cn(C(F)F)nc4Cl)ccc3nc2[nH]1` [Example 87, 8-chloro-7-(3-chloro-1-(difluoromethyl)-1H-pyrazol-4-yl)-1,3-dihydro-2H-imidazo[4,5-b]quinolin-2-one]: it took 2 nM to reach half-maximal inhibition (IC50).

As to `O=c1[nH]c2cc3cc(-c4cnn(C(F)F)c4Cl)c(Cl)cc3nc2[nH]1` [Example 88, 6-chloro-7-(5-chloro-1-(difluoromethyl)-1H-pyrazol-4-yl)-1,3-dihydro-2H-imidazo[4,5-b]quinolin-2-one], the IC50 was 9.1 nM. Still for that read-out and setting: for `O=c1[nH]c2cc3cc(-c4cn(C(F)F)nc4Cl)c(Cl)cc3nc2[nH]1` [Example 89, 6-chloro-7-(3-chloro-1-(difluoromethyl)-1H-pyrazol-4-yl)-1,3-dihydro-2H-imidazo[4,5-b]quinolin-2-one] the value was 18.8 nM.

A further assay relates to SK-MEL-3 cells. The assay can be described thus: SK-MEL-3 cell proliferation assay. As to conditions: Homo sapiens, SK-MEL3; SK-MEL-3 cells, 72 hours, CellTiter-Glo; read-out: SK-MEL-3 IC50. The class given is cell-based.
With `O=c1[nH]c2cc3c(nc2[nH]1)CCC(c1cnn(C(F)F)c1Cl)C3` (racemic) [Example 64, 7-(5-chloro-1-(difluoromethyl)-1H-pyrazol-4-yl)-1,3,5,6,7,8-hexahydro-2H-imidazo[4,5-b]quinolin-2-one], the IC50 was found to be 0.08 nM. Regarding `O=c1[nH]c2cc3c(nc2[nH]1)CC[C@H](c1cnn(C(F)F)c1Cl)C3` (single isomer, unassigned) [Example 64-A, (*S)-7-(5-chloro-1-(difluoromethyl)-1H-pyrazol-4-yl)-1,3,5,6,7,8-hexahdro-2H-imidazo[4,5-b]quinolin-2-one], the IC50 amounted to 0.04 nM. As for `O=c1[nH]c2cc3c(nc2[nH]1)CC[C@@H](c1cnn(C(F)F)c1Cl)C3` (single isomer, unassigned) [Example 64-B, (*R)-7-(5-chloro-1-(difluoromethyl)-1H-pyrazol-4-yl)-1,3,5,6,7,8-hexahydro-2H-imidazo[4,5-b]quinolin-2-one], the IC50 came out at 0.5 nM. For the compound `O=c1[nH]c2cc3cc(-c4ccc(F)cc4Cl)ccc3nc2[nH]1` [Example 3, 7-(2-chloro-4-fluorophenyl)-1,3-dihydro-2H-imidazo[4,5-b]quinolin-2-one], the half-inhibitory concentration (IC50) is 0.5 nM. On the same count and under the same terms, the same measure for `O=c1[nH]c2cc3cc(-c4cnn(C(F)F)c4Cl)ccc3nc2[nH]1` [Example 13, 7-(5-chloro-1-(difluoromethyl)-1H-pyrazol-4-yl)-1,3-dihydro-2H-imidazo[4,5-b]quinolin-2-one]: 0.03 nM; for `N#Cc1ccc(-c2ccc3nc4[nH]c(=O)[nH]c4cc3c2)c(Cl)c1` [Example 14, 7-(2-chloro-4-cyanophenyl)-1,3-dihydro-2H-imidazo[4,5-b]quinolin-2-one]: 0.3 nM. `O=c1[nH]c2cc3cc(-c4nn(C(F)F)cc4Cl)ccc3nc2[nH]1` [Example 15, 7-(4-chloro-1-(difluoromethyl)-1H-pyrazol-3-yl)-1,3-dihydro-2H-imidazo[4,5-b]quinolin-2-one]: the IC50 amounted to 0.7 nM.

For the compound `O=c1[nH]c2cc3c(Cl)c(N4CC5(CCC5)C4)ccc3nc2[nH]1` [Example 76, 8-chloro-7-(2-azaspiro[3.3]heptan-2-yl)-1,3-dihydro-2H-imidazo[4,5-b]quinolin-2-one], the IC50 turned out to be 2.3 nM. For the compound `O=c1[nH]c2cc3c(OC(F)F)c(-c4ccc(F)cc4)ccc3nc2[nH]1` [Example 77, 8-(difluoromethoxy)-7-(4-fluorophenyl)-1,3-dihydro-2H-imidazo[4,5-b]quinolin-2-one], the IC50 came out at 4.4 nM.

Take `COc1c(-c2ccc(F)cc2)ccc2nc3[nH]c(=O)[nH]c3cc12` [Example 78, 8-(methoxy)-7-(4-fluorophenyl)-1,3-dihydro-2H-imidazo[4,5-b]quinolin-2-one]: the 50% inhibitory concentration (IC50) was determined as 0.9 nM. The same measure, in the same setting: for `Cc1ccc(-c2ccc3nc4[nH]c(=O)[nH]c4cc3c2C(F)(F)F)cc1` [Example 79, 7-(p-tolyl)-8-(trifluoromethyl)-1,3-dihydro-2H-imidazo[4,5-b]quinolin-2-one] the value was 0.4 nM; for `O=c1[nH]c2cc3c(C(F)(F)F)c(-c4ccccc4)ccc3nc2[nH]1` [Example 80, 7-phenyl-8-(trifluoromethyl)-1,3-dihydro-2H-imidazo[4,5-b]quinolin-2-one], 0.5 nM; for `O=c1[nH]c2cc3c(Cl)c(N4CCC5(CC4)CC5)ccc3nc2[nH]1` [Example 81, 8-chloro-7-(6-azaspiro[2.5]octan-6-yl)-1,3-dihydro-2H-imidazo[4,5-b]quinolin-2-one], 9.7 nM. `CCC1=CCN(c2ccc3nc4[nH]c(=O)[nH]c4cc3c2Cl)CC1` [Example 82, 8-chloro-7-(4-ethyl-3,6-dihydropyridin-1(2H)-yl)-1,3-dihydro-2H-imidazo[4,5-b]quinolin-2-one]: the IC50 is 509 nM. On to `O=c1[nH]c2cc3c(Cl)c(-c4ccc(F)cc4Cl)ccc3nc2[nH]1` [Example 83, 8-chloro-7-(2-chloro-4-fluorophenyl)-1,3-dihydro-2H-imidazo[4,5-b]quinolin-2-one], for which the 50% inhibitory concentration (IC50) amounted to 0.4 nM. On the same count and under the same terms, the same measure for `O=c1[nH]c2cc3c(C(F)(F)F)c(-c4ccc(F)cc4)ccc3nc2[nH]1` [Example 84, 7-(4-fluorophenyl)-8-(trifluoromethyl)-1,3-dihydro-2H-imidazo[4,5-b]quinolin-2-one]: 1.2 nM; for `COc1c(-c2ccc(F)cc2Cl)ccc2nc3[nH]c(=O)[nH]c3cc12` [Example 85, 7-(2-chloro-4-fluorophenyl)-8-methoxy-1,3-dihydro-2H-imidazo[4,5-b]quinolin-2-one]: 0.3 nM; for `O=c1[nH]c2cc3c(Cl)c(-n4ccc(C(F)(F)F)n4)ccc3nc2[nH]1` [Example 90, 8-chloro-7-(3-(trifluoromethyl)-1H-pyrazol-1-yl)-1,3-dihydro-2H-imidazo[4,5-b]quinolin-2-one]: 3.4 nM. In the case of `COc1ncc(N2CCc3nc4[nH]c(=O)[nH]c4cc3C2)cc1C(F)(F)F` [Example 91, 7-(6-methoxy-5-(trifluoromethyl)pyridin-3-yl)-1,3,5,6,7,8-hexahydro-2H-imidazo[4,5-b][1,6]naphthyridin-2-one], the IC50 came to 281 nM. Same read-out and setting: the same measure for `Cc1ccc(-c2ccc3nc4[nH]c(=O)[nH]c4nc3c2Cl)cc1` [Example 92, 5-chloro-6-(p-tolyl)-1,3-dihydro-2H-imidazo[4,5-b]quinoxalin-2-one]: 88.2 nM; for `Cn1c(=O)[nH]c2nc3ccc(-c4ccc(F)cc4)c(Cl)c3cc21` [Example 93, 8-chloro-7-(4-fluorophenyl)-1-methyl-1,3-dihydro-2H-imidazo[4,5-b]quinolin-2-one]: 8.7 nM; for `Cc1ccc(-c2ccc3nc4[nH]c(=O)oc4cc3c2Cl)cc1` [Example 94, 8-chloro-7-(p-tolyl)oxazolo[4,5-b]quinolin-2(3H)-one]: 258 nM.

Consider `Cc1ccc(-c2ccc3nc4c(cc3c2Cl)C(=O)C(=O)N4)cc1` [Example 95, 5-chloro-6-(p-tolyl)-1H-pyrrolo[2,3-b]quinolin-2,3-dione], for which the 50% inhibitory concentration (IC50) came out at 55.5 nM.
